Measurements: PMC11491488 (Scientific Reports, 2024)

Key:
[1] = tested on: gram-positive Staphylococcus aureus (S. aureus); test: MIC assay, percentage growth inhibition, serial dilution in 96-well plates; format: cell-based; conditions: for inhibition of bacterial cells: at higher concentrations
[2] = tested on: gram-negative Pseudomonas aeruginosa (P. aeruginosa); test: as above; format: cell-based; conditions: for inhibition of bacterial cells: at higher concentrations

SMILES	percent of S. aureus killed ([1]; 12 µg/mL) [%]	inhibition of bacterial cells [1] [%]	percent of P. aeruginosa killed ([2]; 4 µg/mL) [%]	inhibition of bacterial cells [2] [%]	inhibition at 128 µg/mL ([1]; Staphylococcus aureus, read-out: inhibitory effect against S. aureus) [%]	inhibition at 40 µg/mL ([2]; Pseudomonas aeruginosa, read-out: inhibitory effect against P. aeruginosa) [%]
O=C(O)c1cn(C2CC2)c2cc(N3CCNCC3)c(F)cc2c1=O [CIPRO, ciprofloxacin]	98.30 ± 0.26	90	100.67 ± 0.39	90	–	–
C[C@H]1COc2c(N3CCN(C)CC3)c(F)cc3c(=O)c(C(=O)O)cn1c23 [LEVO, levofloxacin]	–	90	–	90	–	–
CCn1cc(C(=O)O)c(=O)c2cc(F)c(N3CCNCC3)cc21 [NOR, norfloxacin]	–	90	–	90	97.9 ± 0.38	100.4 ± 0.17
